Results taken from ChEMBL document CHEMBL2424646, “Design, synthesis and biological evaluation of novel mansonone E derivatives prepared via CuAAC click chemistry as topoisomerase II inhibitors” (Eur J Med Chem, 2013).
Activity calls are given as the source filed them. The rule behind the calls is not given here.

Experiments:
[1] = target: T1, DNA topoisomerase 2-alpha (Homo sapiens, UniProt P11388); conditions: 100 uM
Description: Inhibition of human topoisomerase 2alpha assessed as formation of linear form of supercoiled pBR322 DNA at 100 uM after 30 mins by agarose gel electrophoresis

[2] = system: HL-60; assay: Cytotoxicity against human HL60 cells after 48 hrs by MTT assay; assay type: functional, cell-based; conditions: HL-60, 48 h
[3] = system: HeLa; assay: Cytotoxicity against human HeLa cells after 48 hrs by MTT assay; assay type: functional, cell-based
[4] = system: K562; assay: Cytotoxicity against human K562 cells after 48 hrs by MTT assay; assay type: functional, cell-based; conditions: K562, 48 h
[5] = target: T1, DNA topoisomerase 2-alpha; assay: Inhibition of human DNA topoisomerase 2alpha-mediated relaxation of supercoiled pBR322 at 20 uM after 30 mins by agarose gel electrophoresis
[6] = system: A549; assay: Cytotoxicity against human A549 cells after 48 hrs by MTT assay; assay type: functional, cell-based; conditions: A549, 48 h
[7] = target: T1, DNA topoisomerase 2-alpha; assay: Inhibition of human DNA topoisomerase 2alpha using pBR322 DNA at 2 uM after 30 mins by agarose gel electrophoresis
[8] = target: T2, DNA topoisomerase 1 (Homo sapiens) (UniProt P11387); assay: Inhibition of DNA topoisomerase 1 (unknown origin)-mediated relaxation of supercoiled pBR322 at 50 uM after 30 mins by agarose gel electrophoresis
T2 sequence (whole entry): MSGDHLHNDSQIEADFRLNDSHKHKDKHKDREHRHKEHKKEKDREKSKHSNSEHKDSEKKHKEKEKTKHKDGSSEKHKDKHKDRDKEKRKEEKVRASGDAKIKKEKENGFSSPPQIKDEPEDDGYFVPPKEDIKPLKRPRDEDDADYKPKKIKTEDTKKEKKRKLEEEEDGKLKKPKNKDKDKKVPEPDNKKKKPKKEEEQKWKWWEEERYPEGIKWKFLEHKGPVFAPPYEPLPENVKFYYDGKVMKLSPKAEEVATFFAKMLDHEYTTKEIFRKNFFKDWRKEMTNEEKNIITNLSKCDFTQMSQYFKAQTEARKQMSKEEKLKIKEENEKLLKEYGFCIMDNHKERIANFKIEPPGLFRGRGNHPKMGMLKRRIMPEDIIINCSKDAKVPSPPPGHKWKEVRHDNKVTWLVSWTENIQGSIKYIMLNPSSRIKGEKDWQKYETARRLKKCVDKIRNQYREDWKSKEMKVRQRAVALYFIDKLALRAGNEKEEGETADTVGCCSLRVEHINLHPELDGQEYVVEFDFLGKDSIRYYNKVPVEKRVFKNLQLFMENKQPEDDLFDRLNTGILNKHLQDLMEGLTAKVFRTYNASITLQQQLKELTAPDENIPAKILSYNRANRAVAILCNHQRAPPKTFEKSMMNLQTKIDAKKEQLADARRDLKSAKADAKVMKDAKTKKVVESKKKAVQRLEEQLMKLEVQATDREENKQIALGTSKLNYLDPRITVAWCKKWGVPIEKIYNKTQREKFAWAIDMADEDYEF

[9] = target: T1, DNA topoisomerase 2-alpha; assay: Ratio of mansonone-E IC50 to compound IC50 for human DNA topoisomerase 2alpha
[10] = target: T1, DNA topoisomerase 2-alpha; assay: Inhibition of human DNA topoisomerase 2alpha using pBR322 DNA after 30 mins by agarose gel electrophoresis
[11] = target: T1, DNA topoisomerase 2-alpha; assay: Inhibition of human topoisomerase 2alpha assessed as formation of linear form of supercoiled pBR322 DNA at 50 uM after 30 mins by agarose gel electrophoresis

T1 sequence (P11388 whole entry): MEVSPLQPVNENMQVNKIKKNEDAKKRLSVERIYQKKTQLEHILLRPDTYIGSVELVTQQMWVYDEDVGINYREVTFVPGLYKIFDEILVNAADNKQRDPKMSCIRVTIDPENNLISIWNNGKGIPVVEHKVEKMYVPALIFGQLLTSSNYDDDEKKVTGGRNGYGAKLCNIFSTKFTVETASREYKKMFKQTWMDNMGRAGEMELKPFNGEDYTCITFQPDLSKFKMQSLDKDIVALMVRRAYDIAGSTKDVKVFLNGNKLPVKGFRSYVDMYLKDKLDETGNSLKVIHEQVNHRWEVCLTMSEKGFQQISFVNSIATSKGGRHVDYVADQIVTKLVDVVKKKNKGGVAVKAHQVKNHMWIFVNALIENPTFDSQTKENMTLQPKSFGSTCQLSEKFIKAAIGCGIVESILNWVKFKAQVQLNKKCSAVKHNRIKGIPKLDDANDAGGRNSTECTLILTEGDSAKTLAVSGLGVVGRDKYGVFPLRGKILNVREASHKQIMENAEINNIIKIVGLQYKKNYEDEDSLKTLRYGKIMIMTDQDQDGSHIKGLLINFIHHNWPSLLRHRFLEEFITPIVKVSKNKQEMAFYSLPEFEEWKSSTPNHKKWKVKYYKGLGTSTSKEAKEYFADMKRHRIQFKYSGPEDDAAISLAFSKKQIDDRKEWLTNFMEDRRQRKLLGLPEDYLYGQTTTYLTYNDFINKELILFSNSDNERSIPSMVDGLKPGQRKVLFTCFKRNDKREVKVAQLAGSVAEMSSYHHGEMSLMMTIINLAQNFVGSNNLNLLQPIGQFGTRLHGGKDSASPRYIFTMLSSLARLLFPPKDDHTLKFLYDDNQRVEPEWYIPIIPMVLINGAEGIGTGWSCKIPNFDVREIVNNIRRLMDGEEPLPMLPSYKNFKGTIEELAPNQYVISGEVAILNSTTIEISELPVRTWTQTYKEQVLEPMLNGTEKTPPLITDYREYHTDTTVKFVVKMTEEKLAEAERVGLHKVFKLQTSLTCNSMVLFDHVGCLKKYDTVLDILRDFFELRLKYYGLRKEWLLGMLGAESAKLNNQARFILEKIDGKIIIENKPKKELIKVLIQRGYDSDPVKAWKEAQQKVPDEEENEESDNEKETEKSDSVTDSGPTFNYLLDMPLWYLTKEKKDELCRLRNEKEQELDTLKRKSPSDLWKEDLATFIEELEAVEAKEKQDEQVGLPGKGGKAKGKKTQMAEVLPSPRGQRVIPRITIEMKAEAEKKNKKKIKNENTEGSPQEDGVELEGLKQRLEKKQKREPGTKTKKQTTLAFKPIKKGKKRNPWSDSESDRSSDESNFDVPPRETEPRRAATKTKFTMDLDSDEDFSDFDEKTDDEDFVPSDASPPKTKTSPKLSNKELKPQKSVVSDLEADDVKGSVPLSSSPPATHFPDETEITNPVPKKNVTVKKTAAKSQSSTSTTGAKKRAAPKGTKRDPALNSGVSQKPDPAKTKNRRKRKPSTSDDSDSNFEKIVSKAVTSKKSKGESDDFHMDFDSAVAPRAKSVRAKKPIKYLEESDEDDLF

| Structure (SMILES) | inhibition [1] | inhibition [5] | inhibition [7] | inhibition [8] | Ratio IC50 [9] | IC50 [10] | inhibition [11] | IC50 [2] | IC50 [3] | IC50 [4] | IC50 [6] |
| --- | --- | --- | --- | --- | --- | --- | --- | --- | --- | --- | --- |
| COc1cc([C@@H]2c3cc4c(cc3[C@@H](O[C@@H]3O[C@@H]5CO[C@@H](C)O[C@H]5[C@H](O)[C@H]3O)[C@H]3COC(=O)[C@H]23)OCO4)cc(OC)c1O [ETOPOSIDE] | Active | – | – | – | – | – | – | 0.33 µM | 63.7 µM | 8.45 µM | – |
| COC(=O)c1nnn(C2COC3=C(Cl)C(=O)C(=O)c4cccc2c43)c1C(=O)OC (stereo unspecified) | – | Active | Active | – | – | – | – | > 100 µM | > 100 µM | > 50 µM | > 100 µM |
| COC(=O)c1cn(C2COC3=C(Cl)C(=O)C(=O)c4cccc2c43)nn1 (stereo unspecified) | – | Active | Active | – | – | – | – | 98 µM | > 100 µM | > 50 µM | > 100 µM |
| O=C1C(=O)c2cccc3c2C(=C1Cl)OCC3n1cc(-c2ccc(Cl)cc2)nn1 (stereo unspecified) | – | Active | Active | – | – | – | – | 12.2 µM | 67.4 µM | 20.6 µM | 77.7 µM |
| CCc1ccc(-c2cn(C3COC4=C(Cl)C(=O)C(=O)c5cccc3c54)nn2)cc1 (stereo unspecified) | – | Active | Active | inactive | – | – | – | 2.9 µM | 29.1 µM | 10.6 µM | 29.5 µM |
| O=C1C(=O)c2cccc3c2C(=C1Br)OCC3n1cc(-c2ccccc2)nn1 (stereo unspecified) | – | Active | Active | – | – | – | – | 29.3 µM | 42.9 µM | 40.1 µM | 50 µM |
| O=C1C(=O)c2cccc3c2C(=C1Br)OCC3n1cc(C2CC2)nn1 (stereo unspecified) | – | Active | Active | – | – | – | – | 22.7 µM | 43.1 µM | 40.2 µM | > 50 µM |
| COC(=O)c1nnn(C2COC3=C(Br)C(=O)C(=O)c4cccc2c43)c1C(=O)OC (stereo unspecified) | – | Active | Active | – | – | – | – | > 50 µM | > 50 µM | > 50 µM | > 50 µM |
| CCOC(=O)c1cn(C2COC3=C(Br)C(=O)C(=O)c4cccc2c43)nn1 (stereo unspecified) | – | Active | Active | – | – | – | – | > 50 µM | > 50 µM | > 50 µM | > 50 µM |
| O=C1C(=O)c2cccc3c2C(=C1Br)OCC3n1cc(-c2ccccn2)nn1 (stereo unspecified) | – | Active | Active | – | – | – | – | 2.11 µM | 16.2 µM | 3.23 µM | 15.3 µM |
| COC(=O)c1cn(C2COC3=C(Br)C(=O)C(=O)c4cccc2c43)nn1 (stereo unspecified) | – | Active | Active | – | – | – | – | > 50 µM | > 50 µM | > 50 µM | > 50 µM |
| O=C1C(=O)c2cccc3c2C(=C1Cl)OCC3n1cc(-c2ccc(F)cc2)nn1 (stereo unspecified) | – | Active | Active | – | – | – | – | 10.7 µM | 48.4 µM | 16.7 µM | 43.1 µM |
| CCOC(=O)c1cn(C2COC3=C(Cl)C(=O)C(=O)c4cccc2c43)nn1 (stereo unspecified) | – | Active | Active | – | – | – | – | > 100 µM | > 100 µM | > 50 µM | > 100 µM |
| COc1ccc(-c2cn(C3COC4=C(Cl)C(=O)C(=O)c5cccc3c54)nn2)cc1 (stereo unspecified) | – | Active | Active | – | – | – | – | 7.08 µM | 40.9 µM | 29.8 µM | 51.1 µM |
| O=C1C(=O)c2cccc3c2C(=C1Cl)OCC3n1cc(-c2ccccn2)nn1 (stereo unspecified) | – | Active | Active | – | – | – | – | 2.7 µM | 28.9 µM | 5.87 µM | 17.8 µM |
| Cc1ccc(-c2cn(C3COC4=C(Cl)C(=O)C(=O)c5cccc3c54)nn2)cc1 (stereo unspecified) | – | Active | Active | – | – | – | – | 19.8 µM | 32.8 µM | 18.3 µM | 55.5 µM |
| CC1=C2OCC(C)c3ccc(C)c(c32)C(=O)C1=O (stereo unspecified) [MANSONONE E] | – | – | – | – | – | 18.6 µM | – | 10.6 µM | 15.7 µM | 12.2 µM | 17.5 µM |
| O=C1C(=O)c2cccc3c2C(=C1Cl)OCC3n1cc(C2CC2)nn1 (stereo unspecified) | – | Active | Active | – | – | – | – | 50 µM | > 100 µM | 50 µM | > 100 µM |
| O=C1C(=O)c2cccc3c2C(=C1Cl)OCC3n1cc(-c2ccccc2)nn1 (stereo unspecified) | – | Active | Active | – | – | – | – | 18.4 µM | 70.2 µM | 21.4 µM | 84.5 µM |

The next lines start with results.

| inhibition [1] | inhibition [5] | inhibition [7] | inhibition [8] | Ratio IC50 [9] | IC50 [10] | inhibition [11] | Structure (SMILES) | IC50 [2] | IC50 [3] | IC50 [4] | IC50 [6] |
| --- | --- | --- | --- | --- | --- | --- | --- | --- | --- | --- | --- |
| – | Active | Active | – | – | – | – | Cc1ccc(-c2cn(C3COC4=C(Br)C(=O)C(=O)c5cccc3c54)nn2)cc1 (stereo unspecified) | 10.3 µM | 26.6 µM | 18.8 µM | 42.9 µM |
| – | Active | Active | – | – | – | – | O=C1C(=O)c2cccc3c2C(=C1Br)OCC3n1cc(-c2ccc(Cl)cc2)nn1 (stereo unspecified) | 15.4 µM | 30.6 µM | 29 µM | 50 µM |
| – | Active | Active | – | 20 | 0.92 µM | – | CCCCCc1ccc(-c2cn(C3COC4=C(Br)C(=O)C(=O)c5cccc3c54)nn2)cc1 (stereo unspecified) | 2.34 µM | 7.72 µM | 4.12 µM | 15 µM |
| – | Active | Active | – | – | – | – | COc1ccc(-c2cn(C3COC4=C(Br)C(=O)C(=O)c5cccc3c54)nn2)cc1 (stereo unspecified) | 10.3 µM | 26.7 µM | 12.7 µM | 45.8 µM |
| – | Active | Active | – | – | – | – | CCCc1ccc(-c2cn(C3COC4=C(Cl)C(=O)C(=O)c5cccc3c54)nn2)cc1 (stereo unspecified) | 2.38 µM | 24.4 µM | 3.86 µM | 28.3 µM |
| – | Active | Active | – | – | – | – | CCCCc1ccc(-c2cn(C3COC4=C(Br)C(=O)C(=O)c5cccc3c54)nn2)cc1 (stereo unspecified) | 2.55 µM | 12.5 µM | 3.87 µM | 18.3 µM |
| – | Active | Active | – | – | – | – | O=C1C(=O)c2cccc3c2C(=C1Br)OCC3n1cc(-c2ccc(F)cc2)nn1 (stereo unspecified) | 12.3 µM | 30.2 µM | 35.5 µM | 50 µM |
| – | Active | Active | – | – | – | – | CCc1ccc(-c2cn(C3COC4=C(Br)C(=O)C(=O)c5cccc3c54)nn2)cc1 (stereo unspecified) | 4.94 µM | 16.7 µM | 14.4 µM | 22.9 µM |
| – | Active | Active | – | – | – | inactive | CCCc1ccc(-c2cn(C3COC4=C(Br)C(=O)C(=O)c5cccc3c54)nn2)cc1 (stereo unspecified) | 1.49 µM | 11.8 µM | 2.82 µM | 17.3 µM |
| – | Active | Active | – | – | – | – | CCCCCc1ccc(-c2cn(C3COC4=C(Cl)C(=O)C(=O)c5cccc3c54)nn2)cc1 (stereo unspecified) | 3.54 µM | 16.9 µM | 3.51 µM | 12.8 µM |
| – | Active | Active | – | – | – | – | CCCCc1ccc(-c2cn(C3COC4=C(Cl)C(=O)C(=O)c5cccc3c54)nn2)cc1 (stereo unspecified) | 2.55 µM | 18 µM | 5.67 µM | 11.4 µM |
